Test results taken from patent US6784201B2, “Benzothiepines having activity as inhibitors of ileal bile acid transport and taurocholate uptake” (G.D. Searle & Company, priority 1994, dated 2004).

molecular target: T1, human IBAT (Homo sapiens, UniProt Q12908); assay: In vitro assay of IBAT-mediated uptake of [14C]-taurocholate (TC) in H14 cells; format: cell-based; settings: 50 μM
T1 construct: expressed in transfected cells; host or cells: Baby hamster kidney (BHK) cells, clone H14
T1 sequence (Q12908 1-348): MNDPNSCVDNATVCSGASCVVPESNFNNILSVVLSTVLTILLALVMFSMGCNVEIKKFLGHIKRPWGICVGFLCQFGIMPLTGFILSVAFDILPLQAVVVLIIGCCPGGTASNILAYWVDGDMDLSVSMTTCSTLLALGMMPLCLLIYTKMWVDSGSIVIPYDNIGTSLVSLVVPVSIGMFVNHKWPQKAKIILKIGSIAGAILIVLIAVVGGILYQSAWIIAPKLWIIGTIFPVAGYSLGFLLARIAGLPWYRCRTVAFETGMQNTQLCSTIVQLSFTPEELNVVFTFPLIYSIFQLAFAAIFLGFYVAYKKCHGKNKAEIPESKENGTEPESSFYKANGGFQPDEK
Protocol: In Vitro Assay of Compounds that Inhibit IBAT-Mediated Uptake of [^14C]-Taurocholate (TC) in H14 Cells
Baby hamster kidney cells (BHK) transfected with the cDNA of human IBAT (H14 cells) are seeded at 60,000 cells/well in 96 well Top-Count tissue culture plates for assays run within in 24 hours of seeding, 30,000 cells/well for assays run within 48 hours, and 10,000 cells/well for assays run within 72 hours.
On the day of assay, the cell monolayer is gently washed once with 100 μl assay buffer (Dulbecco's Modified Eagle's medium with 4.5 g/L glucose+0.2% (w/v) fatty acid free bovine serum albumin-(FAF)BSA). To each well 50 μl of a two-fold concentrate of test compound in assay buffer is added along with 50 μl of 6 μM [^14C]-taurocholate in assay buffer (final concentration of 3 μM [^14C]-taurocholate). The cell culture plates are incubated 2 hours at 37° C. prior to gently washing each well twice with 100 μl 4° C. Dulbecco's phosphate-buffered saline (PBS) containing 0.2% (w/v) (FAF)BSA. The wells are then gently washed once with 100 μl 4° C. PBS without (FAF)BSA. To each 200 μl of liquid scintillation counting fluid is added, the plates are heat sealed and shaken for 30 minutes at room temperature prior to measuring the amount of radioactivity in each well on a Packard Top-Count instrument.

| Compound | In vitro % Inhibition of TC Uptake [%] |
| --- | --- |
| 8b-Phenyl-1a,2,3,8b-tetrahydrospiro(benzothiepino[4,5-b]oxirene-2,1′-cyclohexane)-4,4-dioxide [Example 58] | 88 |

same assay, conditions: 100 uM

| Compound | In vitro % Inhibition of TC Uptake @ 100 uM [%] |
| --- | --- |
| CCCCC1(CC)CS(=O)(=O)c2ccccc2C(Sc2ccccc2)C1O (single isomer, unassigned) [Example 21b, 3-Butyl-3-ethyl-4-hydroxy-5-phenylthio-2,3,4,5-tetrahydro-benzothiepine-1,1-dioxide] | 45 |
| CCCCC1(CC)CS(=O)(=O)c2ccccc2C(Sc2ccccc2)C1O (single isomer, unassigned) [Example 21c, 3-Butyl-3-ethyl-4-hydroxy-5-phenylthio-2,3,4,5-tetrahydro-benzothiepine-1,1-dioxide] | 52 |

same assay, conditions: 100 uM; read-out: In vitro % Inhibition of TC Uptake @ 100 uM

| Compound | inhibition at 100 µM [%] |
| --- | --- |
| CCCC[C@]1(CC)CS(=O)(=O)c2ccccc2[C@H](c2ccccc2)C1=O (relative stereo) [Example 5a, cis-3-Butyl-3-ethyl-5-phenyl-2,3-dihydrobenzothiepin-(5H) 4-one-1,1-dioxide] | 34 |
| CCCC[C@]1(CC)CS(=O)(=O)c2ccccc2[C@@]2(c3ccccc3)O[C@@H]12 [Example 8a, (1aα,2β,8bα) 2-Butyl-2-ethyl-8b-phenyl-1α,2,3,8b-tetrahydro-benzothiepino[4,5-b]oxirene-4,4-dioxide] | 41 |

Continued, values first:

| inhibition at 100 µM [%] | Compound |
| --- | --- |
| 3 | CCCC[C@]1(CC)CSc2ccccc2[C@H](c2ccccc2)C1=O (relative stereo) [Example 4a, cis-3-Butyl-3-ethyl-5-phenyl-2,3-dihydrobenzothiepin-(5H)4-one] |
| 9 | CCCC[C@]1(CC)CSc2ccccc2[C@@H](c2ccccc2)C1=O (relative stereo) [Example 4b, trans-3-Butyl-3-ethyl-5-phenyl-2,3-dihydro-benzothiepin-(5H)4-one] |
| 0 | CCCCC1(CC)C=C(c2ccccc2)c2ccccc2SC1 (stereo not drawn) [Example 3, 3-Butyl-3-ethyl-5-phenyl-2,3-dihydrobenzothiepine] |
| 85 | CCCC[C@]1(CC)CS(=O)(=O)c2ccccc2[C@H](c2ccccc2)[C@H]1O [Example 6b, (3α,4β,5α) 3-Butyl-3-ethyl-4-hydroxy-5-phenyl-2,3,4,5-tetrahydro-benzothiepine-1,1-dioxide] |

same assay, conditions: H14 cells, Table 5; read-out: IC50 uM (In vitro Taurocholate Cell Uptake)

| Compound | IC50 [µM] |
| --- | --- |
| O=S1(=O)CC2(CCCCC2)[C@@H](O)[C@H](c2ccccc2)c2ccccc21 (relative stereo) [Example 59, trans-4-Hydroxy-5-phenyl-2,3,4,5-tetrahydro spiro(benzothiepine-3,1′-cyclohexane)-1,1-dioxide] | 70 |
| CCCC[C@]1(CC)CS(=O)(=O)c2ccccc2[C@@H](c2ccccc2)[C@@H]1O [Example 6a, (3α,4α,5β) 3-Butyl-3-ethyl-4-hydroxy-5-phenyl-2,3,4,5-tetrahydrobenzothiepine-1,1-dioxide] | 5 |

same assay, conditions: Human TC IC50

| Compound | IC50 [µM] |
| --- | --- |
| CCCCC1(CC)CS(=O)(=O)c2ccc(N(C)C)cc2C(c2ccccc2)C1O (single isomer, unassigned) [Example 1259] | 16.5 |
| CCCCC1(CC)CS(=O)(=O)c2ccc(N(C)C)cc2C(c2ccccc2)C1O (single isomer, unassigned) [Example 1300] | 1 |

same assay, conditions: read-out: Human TC IC50

| Compound | IC50 [µM] |
| --- | --- |
| CCCCC1(CC)CS(=O)(=O)c2ccc(NC(=O)OCc3ccccc3)cc2C(c2ccc(OC)cc2)C1O (single isomer, unassigned) [Example 115] | 8 |
| CCCCC1(CC)CS(=O)(=O)c2ccc(NC(=O)OCc3ccccc3)cc2C(c2ccc(OC)cc2)C1O (single isomer, unassigned) [Example 116] | 0.3 |
| CCCCC1(CC)CS(=O)(=O)c2ccc(N)cc2C(c2ccccc2)C1O (single isomer, unassigned) [Example 121] | 0.068 |
| CCCCC1(CC)CS(=O)(=O)c2ccc(N)cc2C(c2ccccc2)C1O (single isomer, unassigned) [Example 122] | 1.07 |
| CCCCC1(CC)CS(=O)(=O)c2ccc(N)cc2C(c2ccc(F)cc2)C1O (single isomer, unassigned) [Example 129] | 0.035 |
| CCCCC1(CC)CS(=O)(=O)c2ccc(SC)cc2C(c2cccc(OC)c2)C1O (single isomer, unassigned) [Example 143] | 0.03 |
| CCCCC1(CC)CS(=O)(=O)c2ccc(OC)cc2C(c2cccc(OC)c2)C1O (single isomer, unassigned) [Example 263] | 0.7 |
| CCCCC1(CC)CS(=O)(=O)c2ccc(OC)cc2C(c2cccc(C(F)(F)F)c2)C1O (single isomer, unassigned) [Example 264] | 0.2 |
| CCCCC1(CC)CS(=O)(=O)c2ccc(OC)cc2C(c2cccc(C(F)(F)F)c2)C1O (single isomer, unassigned) [Example 265] | 2 |
| CCCCC1(CC)CS(=O)(=O)c2ccc(Br)cc2C(c2cccc(OC)c2)C1O (single isomer, unassigned) [Example 271] | 0.07 |
| CCCCC1(CC)CS(=O)(=O)c2ccc(Br)cc2C(c2cccc(OC)c2)C1O (single isomer, unassigned) [Example 272] | 0.7 |
| CCCCC1(CC)CS(=O)(=O)c2ccc(F)cc2C(c2ccc(F)cc2)C1O (single isomer, unassigned) [Example 273] | 1.9 |
| CCCCC1(CC)CS(=O)(=O)c2ccc(F)cc2C(c2ccc(F)cc2)C1O (single isomer, unassigned) [Example 274] | 0.18 |
| CCCCC1(CC)CS(=O)(=O)c2ccc(C)cc2C(c2ccc(F)cc2)C1O (single isomer, unassigned) [Example 282] | 0.021 |
| CCCCC1(CC)CS(=O)(=O)c2ccc(C)cc2C(c2ccc(F)cc2)C1O (single isomer, unassigned) [Example 283] | 0.35 |
| CCCCC1(CCCC)CS(=O)(=O)c2c(cccc2N(C)C)C(c2ccsc2)C1O (single isomer, unassigned) [Example 1067] | 0.004 |
| CCCCC1(CC)CS(=O)(=O)c2ccc(N(C)C)cc2C(c2ccc(O)cc2)C1O (single isomer, unassigned) [Example 1078] | 0.0045 |
| CCCCC1(CC)CS(=O)(=O)c2ccc(N(C)C)cc2C(c2cccc(C)c2)C1O (single isomer, unassigned) [Example 1116] | 0.0093 |
| CCCCC1(CCCC)CS(=O)(=O)c2ccc(N(C)C)cc2C(c2ccc(OC)c(F)c2)C1O (single isomer, unassigned) [Example 1143] | 0.027 |
| CCCCC1(CCCC)CS(=O)(=O)c2ccc(N(C)C)cc2C(c2ccccc2)C1O (single isomer, unassigned) [Example 1200] | 6.1 |
| CCCCC1(CCCC)CS(=O)(=O)c2c(cccc2N2CCOCC2)C(c2ccc(OC)cc2)C1O (single isomer, unassigned) [Example 1212] | 0.39 |
| CCCCC1(CC)CS(=O)(=O)c2ccc(N(C)C)cc2C(c2ccc(OC)c(F)c2)C1O (single isomer, unassigned) [Example 1213] | 1.7 |
| CCCCC1(CC)CS(=O)(=O)c2ccc(N(C)C)cc2C(c2cccc(C)c2)C1O (single isomer, unassigned) [Example 1225] | 0.12 |
| CCCCC1(CCCC)CS(=O)(=O)c2c(cccc2N(C)C)C(c2ccsc2)C1O (single isomer, unassigned) [Example 1232] | 1.2 |
| CCCCC1(CCCC)CS(=O)(=O)c2c(cccc2N2CCOCC2)C(c2ccc(OC)cc2)C1O (single isomer, unassigned) [Example 1307] | 3.1 |
| CCCCC1(CC)CS(=O)(=O)c2ccc(NO)cc2C(c2ccccc2)C1O (single isomer, unassigned) [Example 1311] | 3.27 |
| CCCCC1(CC)CS(=O)(=O)c2ccc(NO)cc2C(c2ccccc2)C1O (single isomer, unassigned) [Example 1314] | 0.26 |

Next, values leading:

| IC50 [µM] | Compound |
| --- | --- |
| 0.55 | CCCCC1(CC)CS(=O)(=O)c2ccc(N)cc2C(c2ccc(F)cc2)C1O (single isomer, unassigned) [Example 127] |
| 0.5 | CCCCC1(CC)CS(=O)(=O)c2ccc(SC)cc2C(c2cccc(OC)c2)C1O (single isomer, unassigned) [Example 142] |
| 0.07 | CCCCC1(CC)CS(=O)(=O)c2ccc(OC)cc2C(c2cccc(OC)c2)C1O (single isomer, unassigned) [Example 262] |
| 0.031 | CCCCC1(CC)CS(=O)(=O)c2ccc(N(C)C)cc2C(c2ccc(OC)c(F)c2)C1O (single isomer, unassigned) [Example 1151] |
| 0.071 | CCCCC1(CC)CS(=O)(=O)c2ccc(N(C)C)cc2C(c2ccc(O)cc2)C1O (single isomer, unassigned) [Example 1287] |
